Drawing on patent US20080114017A1, “Novel Indolopyridines, Benzofuranopyridines and Benzothienopyridines” (priority 2005, published 2008), this text covers IC50 for five compounds.

The test system of assay [1] is RKO human colon adenocarcinoma cells (RKO p27 subclone, uninduced). In words: Alamar Blue cell viability assay, anti-proliferative/cytotoxic activity, proliferating RKO p27 cells (uninduced). It is filed as cell-based. The conditions noted are these: RKOp27, absence of Ponasterone A, 72 hours incubation. How it is done:
The anti-proliferative/cytotoxic activity of the compounds described herein can be tested on subclones of RKO human colon adenocarcinoma cells (Schmidt et al., Oncogene 19, 2423-2429; 2000) using the Alamar Blue cell viability assay (described in O'Brien et al. Eur J Biochem 267, 5421-5426, 2000). The compounds are dissolved as 10 mM solutions in DMSO and subsequently diluted in semi-logarithmic steps. DMSO dilutions are further diluted 1:100 into Dulbecco's modified Eagle's medium (DMEM) containing 10% fetal calf serum to a final concentration twice as much as the final concentration in the test. RKO subclones are seeded into 96 well flat bottom plates at a density of 4000 cells per well in a volume of 50 μl per well. 24 hours after seeding the 50 μl each of the compound dilutions in DMEM medium are added into each well of the 96 well plate. Each compound dilution is tested as quadruplicates. Wells containing untreated control cells are filled with 50 μl DMEM medium containing 1% DMSO. The cells are then incubated with the substances for 72 hours at 37° C. in a humidified atmosphere containing 5% carbon dioxide. To determine the viability of the cells, 10 μl of an Alamar Blue solution (Biosource) are added and the fluorescence is measured at an extinction of 544 nm and an emission of 590 nm. For the calculation of the cell viability the emission value from untreated cells is set as 100% viability and the emission rates of treated cells are set in relation to the values of untreated cells. Viabilities are expressed as % values.
The corresponding IC50 values of the compounds for anti-proliferative/cytotoxic activity are determined from the concentration-effect curves.
(§1) Representative IC50 values for anti-proliferation/cytotoxicity determined in the aforementioned assays follow from the following table A, in which the numbers of the compounds correspond to the numbers of the examples.
A general note: Resazurin is reduced to fluorescent resorufin, in cell work by metabolically active cells.

The test system of assay [2] is RKO colon adenocarcinoma cells (RKOp27, induced). In words: Alamar Blue cell viability assay, cell cycle specific mode of action, RKO p27 cells arrested by Ponasterone A induced p27Kip1. It is filed as cell-based. The conditions noted are these: Homo sapiens, cells arrested by ectopic p27Kip1 induced with 10 μM Ponasterone A, 72 hours incubation. The method, then:
To determine the cell cycle specific mode of action, subclones of RKO colon adenocarcinoma cells (RKOp27 as described by Schmidt et al. in Oncogene 19, 2423-2429; 2000) are seeded into 96 well flat bottom plates at a density of 16000 cells per well in a volume of 50 μl per well in DMEM growth medium with 10% FCS containing 10 μM Ponasterone A. 24 hours after seeding the 50 μl each of the compound dilutions in DMEM medium are added into each well of the 96-well plate. Each compound dilution is tested as quadruplicates. Wells containing untreated control cells are filled with 50 μl DMEM medium containing 1% DMSO. The cells are then incubated with the substances for 72 hours at 37° C. in a humidified atmosphere containing 5% carbon dioxide. To determine the viability of the cells, 10 μl of an Alamar Blue solution (Biosource) are added and the fluorescence is measured at an extinction of 544 nm and an emission of 590 nm. For the calculation of the cell viability the emission value from untreated cells is set as 100% viability and the emission rates of treated cells are set in relation to the values of untreated cells. Viabilities are expressed as % values. Viability is compared of proliferating cells grown in the absence of the inducer Ponasterone A, versus viability of cells arrested by the expression of ectopic p27Kip1 induced by Ponasterone A.
as §1

The structures appear in SMILES notation.

For the compound `COC(=O)c1cc(Cl)cc([C@@H]2c3[nH]c4ccccc4c3C[C@H]3C(=O)N(C)C(=S)N23)c1` [Compound 6, 3-Chloro-5-((3aS,10R)-2-methyl-3-oxo-1-thioxo-2,3,3a,4,9,10-hexahydro-1H-2,9,10a-triaza-cyclopenta[b]fluoren-10-yl)-benzoic acid methyl ester], the IC50 is at most 2 µM in assay [1] and above 100 µM in assay [2].

Take `CN1C(=O)[C@@H]2Cc3c([nH]c4ccccc34)[C@@H](c3cccc(OC(F)(F)F)c3)N2C1=S` [Compound 1, (3aS,10R)-2-Methyl-1-thioxo-10-(3-trifluoromethoxy-phenyl)-1,2,3a,4,9,10-hexahydro-2,9,10a-triaza-cyclopenta[b]fluoren-3-one]: the IC50 in assay [1] is at most 2 µM; in assay [2] it was above 100 µM.

As to `COC(=O)c1cccc([C@@H]2c3[nH]c4ccccc4c3C[C@H]3C(=O)N(C)C(=S)N23)c1` (racemic) [Compound 4, 3-((3aSR, 10RS)-2-Methyl-3-oxo-1-thioxo-2,3,3a,4,9,10-hexahydro-1H-2,9,10a-triaza-cyclopenta[b]fluoren-10-yl)-benzoic acid methyl ester], the IC50 in assay [1] was at most 2 µM; in assay [2], above 100 µM.

On to `COC(=O)c1ccc(OC)c([C@@H]2c3[nH]c4ccccc4c3C[C@H]3C(=O)N(C)C(=S)N23)c1` [Compound 7, 4-Methoxy-3-((3aS,10R)-2-methyl-3-oxo-1-thioxo-2,3,3a,4,9,10-hexahydro-1H-2,9,10a-triaza-cyclopenta[b]fluoren-10-yl)-benzoic acid methyl ester], for which the results for the half-maximal inhibitory concentration (IC50) in assay [1] and in assay [2] were at most 2 µM and above 100 µM, respectively.

Take `COC(=O)c1cccc([C@@H]2c3[nH]c4ccccc4c3C[C@H]3C(=O)N(C)C(=S)N23)c1` [Compound 5, 3-((3aS,10R)-2-Methyl-3-oxo-1-thioxo-2,3,3a,4,9,10-hexahydro-1H-2,9,10a-triaza-cyclopenta[b]fluoren-10-yl)-benzoic acid methyl ester]: the IC50 in assay [1] was at most 2 µM; in assay [2], above 100 µM.

Usually IC50 stands for the concentration at which inhibition is half-maximal.
